1 substance from patent publication US20230346827A1 (priority 2020, published 2023) can be followed below.

Assay [1] has as its system coronary artery smooth muscle cells + (IL-1 β, TNFα and IFNy). Description: BioMAP CASM3C system. Type of assay: cell-based, human. The note with it: annotated relative to vehicle controls. From the text: Cell types and stimuli used in each system are as follows: 3C system [HUVEC + (IL-1β, TNFα and IFNy)], 4H system [HUVEC + (IL-4 and histamine)], LPS system [PBMC and HUVEC + LPS (TLR4 ligand)], SAg system [PBMC and HUVEC + TCR ligands], BT system [CD19+ B cells and PBMC + (α-IgM and TCR ligands)], BF4T system [bronchial epithelial cells and HDFn + (TNFα and IL-4)], BE3C system [bronchial epithelial cells + (IL-1β, TNFα and IFNy)], CASM3C system [coronary artery smooth muscle cells + (IL-1 β, TNFα and IFNy)], HDF3CGF system [HDFn + (IL-1β, TNFα, IFNy, EGF, bFGF and PDGF-BB)], KF3CT system [keratinocytes and HDFn + (IL-1β, TNFα, IFNy and TGFβ)], MyoF system [differentiated lung myofibroblasts + (TNFα and TGFβ)] and Mphg system [HUVEC and M1 macrophages + Zymosan (TLR2 ligand)].
Systems are derived from either single cell types or co-culture systems. Adherent cell types are cultured in 96 or 384-well plates until confluence, followed by the addition of PBMC (SAg and LPS systems). […] Soluble factors from supernatants are quantified using either HTRF® detection, bead-based multiplex immunoassay or capture ELISA. Overt adverse effects of test agents on cell proliferation and viability (cytotoxicity) are detected by sulforhodamine B (SRB) staining, for adherent cells, and alamarBlue® reduction for cells in suspension. […]

Assay [2] deals with human PBMC. The assay can be described thus: Stimulated cytokine release from human PBMC (5-plex Luminex: IFNγ, IL-8, TNFα, IL-1β, IL-10). The assay is classed as cell-based. How it is done:
Example 9 investigated the ability of LMW-DS to modify the secretion of IL-6 from human PBMC arising from the use of various stimuli. The present study performed a broader analysis of the cell culture supernatants arising from Example 9. Thus, peripheral blood mononuclear cells (PBMC) were isolated from healthy donors through Ficoll-Paque PLUS density centrifugation. The PBMC were cultured at 2×10^5 cells/well in the absence (unstimulated PBS vehicle controls) or presence of stimulation (LPS, peptidoglycan, pokeweed mitogen, PHA-L, CpG + IL-15, or Cytostim) in the absence (vehicle) or presence of LMW-DS (Tikomed AB, Viken, Sweden, WO 2016/076780; three concentrations; top concentration 600 µg/ml, 200 µg/ml and 60 µg/ml) for 24 hours at 37° C., 5% CO2.
Accordingly, the treatments were as follows for each PBMC donor: • i. Vehicle • ii. Simulation • iii. Stimulation + LMW-DS (60 µg/ml) • iv. Stimulation + LMW-DS (200 µg/ml) • v. Stimulation + LMW-DS (600 µg/ml) with each assessed in triplicate such that the total numbers of samples were: • 1. LPS; 165 samples (from 11 donors) • 2. Peptidoglycan from B. subtilis; 90 samples (from 6 donors) • 3. PHA-L; 90 samples (from 6 donors) • 4. 0.2 µM CpG + IL-15; 90 samples (from 6 donors) • 5. 1.0 µM CpG + IL-15; 90 samples (from 6 donors) • 6. Pokeweed mitogen; 90 samples (from 6 donors) • 7. 10 µl/ml Cytostim; 90 samples (from 6 donors) • 8. 30 µl/ml Cytostim; 90 samples (from 6 donors)
Following treatment, cell culture supernatants were removed, centrifuged and stored at -20° C. before thawing for multiplex analysis of various cytokines using the 5-plex human magnetic Luminex assay from R&D systems (Cat. No. LXSAHM-05). Luminex analysis was carried out exactly following manufacturer’s protocols.

In assay [3] the target is T1, SARS-CoV-2 spike protein - ACE2 interaction (Severe acute respiratory syndrome coronavirus 2, UniProt P0DTC2).
T1 construct: purchased RayBio CoV-SACE2
Description: RayBio COVID-19 Spike-ACE2 binding assay kit (ELISA). More on the design: species or system SARS-CoV-2 / human. The note with it: LMW-DS 3.0 to 600 µg/ml. How it is done: The RayBio® COVID-19 Spike-ACE2 binding assay kit (cat. number CoV-SACE2) was used as per the manufacturer’s instructions (ver 1.6) to assess the ability of LMW-DS to disrupt the interaction between SARS-CoV-2 spike protein and ACE2.
LMW-DS (ILB®, Tikomed AB, Viken, Sweden, WO 2016/076780) in saline was added in concentrations ranging from […] to 600 µg/ml.
For orientation: An ELISA detects its analyte on a solid surface through an enzyme-linked reagent.

[4] abbreviates: LPS, highest concentration of LMW-DS.

With sodium salt of dextran sulfate [LMW-DS], the Decreased biomarker activity entry in assay [1] is given as “VCAM-1, MIG”. For the same substance, the IL-8 secretion response entry in assay [2] (CpG + IL-15) was “little impact”. Besides, in assay [2] (Cytostim), the IL-10 secretion entry was “concentration dependent large reduction” and the “secretion of IFNγ, IL-1β, IL-8, TNFα” value was “small reductions”. In assay [2] (LPS, LMW-DS 60-600 µg/ml), the IFNγ secretion result was “concentration dependent but small reduction” and the IL-10 secretion entry is on record as “concentration dependent but small reduction”. Moreover, in assay [2] (setting [4]), the IL-1β secretion entry is “modest reduction”, the IL-8 secretion result is recorded as “modest reduction” and the TNFα secretion entry is recorded as “modest reduction”. Also, in assay [2] (PHA-L), the IFNγ release result was “small decreases”; the IL-8 release entry is “small decreases”; the IL-10 secretion result is on record as “large, concentration dependent decrease”; the TNFα release entry was “small decreases”. Moreover, in assay [2] (peptidoglycan), the IL-1β secretion entry is “increases” and the TNFα secretion result is “increases”. Besides, in assay [2] (peptidoglycan, LMW-DS up to 600 µg/ml), the “general reduction in cytokine release” value is on record as “little evidence”. In assay [2] (pokeweed mitogen), the IL-10 secretion result is “concentration-dependent decrease” and the “secretion of IFNγ, IL-1β, IL-8, TNFα” value is “not impacted generally”. The “SARS-CoV-2 spike protein - ACE2 interaction” value in assay [3] is reported as “concentration dependent disruption”.
